“Also recorded” adds a separate entry of the source. Where two headings read alike, the source gives them in different places.
Experiments:
Assay type in all cases: cell-based, human
FOXO3 = test: qPCR analysis of FOXO3-regulated genes; conditions: for fold induction at 10 µM: Homo sapiens; for K = Sestrin induction: score
Summary of the method: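 FOXO3 target-gene expression quantified by qPCR normalised to B2M, PPIA and GAPDH, in WI-38 cells after 24 h exposure to 10 μM compound. Some runs used cells first transfected 36 h with 10 nM FOXO3 or NRF2 siRNA and replated ~24 h before dosing.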

NRF2 = test: qPCR analysis of NRF2-regulated genes; conditions: for fold induction at 10 µM: Homo sapiens
Summary of the method: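 Expression of HMOX1, NQO1, GCLC and GSTM1 measured by qPCR relative to B2M, PPIA and GAPDH. Cells were WI-38 fibroblasts exposed 24 hrs to 10 μM compound, with RNA and cDNA prepared via Cells-to-Ct. Where stated, cells were first transfected 36 hrs with FOXO3 or NRF2 siRNA at 10 nM.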

mTOR = mTOR inhibition (RPS6 phosphorylation status), In-Cell Western
Summary of the method: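 Read-out is In-Cell Western near-infrared imaging of phospho-RPS6 (Ser-235/236) against total RPS6, using overnight 4° C primary staining and DyLight 680/800 secondaries. Compounds were given to WI-38 cells for 24 hrs at three doses: 5, 10 and 20 μM.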

[1] = 24 h, Assay 10(m), at 10 uM, qPCR, read-out: Induction of FOXO3-regulated genes: DDB1 normalized fold-change
[2] = 10 μM, 24 hrs, WI-38 cells, qPCR, normalized to B2M, n = 4, read-out: DDB1 expression, normalized fold change (FOXO3-regulated gene)
[3] = WI-38 cells, 10 μM, 24 hrs, n=4, qPCR normalized by B2M, read-out: DDB1 Normalized fold change
[4] = WI-38 cells, 10 μM, 24 hrs, n=4, qPCR normalized by B2M, read-out: GADD45A Normalized fold change
[5] = WI-38 cells, 10 μM, 24 hrs, n=4, qPCR normalized by B2M, read-out: SESN1 Normalized fold change
[6] = fold change, qPCR, WI-38 cells, 10 μM, 24 hrs, read-out: Summary of effects on FOXO3-regulated genes: DDB1
[7] = qPCR, WI-38 cells, 10 μM, n=4, 24 hrs, normalized by B2M, read-out: CAT Normalized fold change
[8] = qPCR, WI-38 cells, 10 μM, n=4, 24 hrs, normalized by B2M, read-out: SOD2 Normalized fold change
[9] = qPCR, WI-38 cells, 10 μM, n=4, 24 hrs, normalized by B2M, read-out: TXNIP Normalized fold change
[10] = rounded fold change, WI-38 cells, 10 μM, 24 hrs (RP29 for Gr-4D), read-out: Summary of effects on NRF2-regulated genes: NQO1
[11] = 10 μM, 24 hrs, WI-38, read-out: Expression of at least two NRF2 target genes
[12] = 10 μM, 24 hrs, WI-38 cells, qPCR, normalized to B2M, n = 4, read-out: NQO1 expression, normalized fold change (NRF2-regulated gene)
[13] = WI-38 cells, 10 μM, 24 hrs, n=4, qPCR normalized by B2M, read-out: GCLC Normalized fold change
[14] = WI-38 cells, 10 μM, 24 hrs, n=4, qPCR normalized by B2M, read-out: GSTM1 Normalized fold change
[15] = WI-38 cells, 10 μM, 24 hrs, n=4, qPCR normalized by B2M, read-out: HMOX1 Normalized fold change
[16] = WI-38 cells, 10 μM, 24 hrs, n=4, qPCR normalized by B2M, read-out: NQO1 Normalized fold change

SMILES	E = Potential FOXO3 Activation (FOXO3; 2-point score)	fold induction at 10 µM (FOXO3; [1])	fold induction at 10 µM (FOXO3; [2])	fold induction at 10 µM (FOXO3; [3])	fold induction at 10 µM (FOXO3; [4])	fold induction at 10 µM (FOXO3; [5])	fold induction at 10 µM (FOXO3; [6])	fold induction at 10 µM (FOXO3; [7])	fold induction at 10 µM (FOXO3; [8])	fold induction at 10 µM (FOXO3; [9])	K = Sestrin induction (FOXO3)	E = Potential FOXO3 Activation (FOXO3; summary score)	F = Potential NRF2 Activation (NRF2; 2-point score)	fold induction at 10 µM (NRF2; [13])	fold induction at 10 µM (NRF2; [14])	fold induction at 10 µM (NRF2; [15])	fold induction at 10 µM (NRF2; [16])	F = Potential NRF2 Activation (NRF2; summary score)	G = mTOR down-regulation (mTOR; 2-point score)	G = mTOR down-regulation (mTOR; summary score)	further results
O=C(/C=C/c1cn(-c2ccccc2)nc1-c1cccnc1)c1ccccc1 [Gr-6B]	0	1.19	1.19	1.19	1.26	1.25	1.19	1.11	1.14	0.861	0	0	2	0.797	1.22	1.88	1.52	2	0	0	Potential NRF2 Activation (>=2 target genes induced, by >=1.5-fold) (NRF2; Assay 13(p)): YES; fold induction at 10 µM (NRF2; 24 h, Assay 12(o), at 10 uM, qPCR, read-out: Induction of NRF2-regulated genes: HMOX1 normalized fold-change): 1.88; fold induction at 10 µM (NRF2; 24 h, Assay 12(o), at 10 uM, qPCR, read-out: Induction of NRF2-regulated genes: NQO1 normalized fold-change): 1.52; fold induction at 10 µM (NRF2; rounded fold change, WI-38 cells, 10 μM, 24 hrs (RP11 for Gr-1D, RP29 for Gr-4D), read-out: Summary of effects on NRF2-regulated genes: HMOX1): 1.88; fold induction at 10 µM (NRF2; [10]): 1.52; fold induction at 10 µM (NRF2; [11]): > 1.5; fold induction at 10 µM (NRF2; 10 μM, 24 hrs, WI-38 cells, qPCR, normalized to B2M, n = 4, read-out: HMOX1 expression, normalized fold change (NRF2-regulated gene)): 1.88; fold induction at 10 µM (NRF2; [12]): 1.52
NS(=O)(=O)c1ccc(NC(=O)c2ccc([N+](=O)[O-])o2)cc1 [Gr-1A]	0	1.16	1.36	1.35	1.27	2.12	1.36	1.31	1.5	1.23	1	0	2	1.61	2.53	0.973	1.79	0	0	0	Induction of at least two of five FOXO3-regulated genes (SOD2, GADD45A, CAT, DDB1, TXNIP) (FOXO3; 10 μM, 24 hrs, WI-38): significant induction; also recorded: significant, induction; also recorded: induce FOXO3-regulated genes; fold induction at 10 µM (FOXO3; 24 h, Assay 10(m), at 10 uM, qPCR, read-out: Induction of FOXO3-regulated genes: CAT normalized fold-change): 1.36; fold induction at 10 µM (FOXO3; 24 h, Assay 10(m), at 10 uM, qPCR, read-out: Induction of FOXO3-regulated genes: SESN1 normalized fold-change): 1.93; fold induction at 10 µM (FOXO3; WI-38, 24 h, read-out: SESN1 expression): > 1.5; fold induction at 10 µM (FOXO3; 10 μM, 24 hrs, WI-38 cells, qPCR, normalized to B2M, n = 4, read-out: CAT expression, normalized fold change (FOXO3-regulated gene)): 1.31; fold induction at 10 µM (FOXO3; 10 μM, 24 hrs, WI-38 cells, qPCR, normalized to B2M, n = 4, read-out: SESN1 expression, normalized fold change (FOXO3-regulated gene)): 2.12; fold induction at 10 µM (FOXO3; fold change, qPCR, WI-38 cells, 10 μM, 24 hrs, read-out: Summary of effects on FOXO3-regulated genes: CAT): 1.31; fold induction at 10 µM (FOXO3; fold change, qPCR, WI-38 cells, 10 μM, 24 hrs, read-out: Summary of effects on FOXO3-regulated genes: SESN1): 2.12; fold induction at 10 µM (NRF2; 24 h, Assay 12(o), at 10 uM, qPCR, read-out: Induction of NRF2-regulated genes: GCLC normalized fold-change): 1.48; fold induction at 10 µM (NRF2; 24 h, Assay 12(o), at 10 uM, qPCR, read-out: Induction of NRF2-regulated genes: GSTM1 normalized fold-change): 1.45; fold induction at 10 µM (NRF2; rounded fold change, WI-38 cells, 10 μM, 24 hrs (RP29 for Gr-4D), read-out: Summary of effects on NRF2-regulated genes: GSTM1): 1.45; fold induction at 10 µM (NRF2; [10]): 1.79; fold induction at 10 µM (NRF2; rounded fold change, WI-38 cells, 10 μM, 24 hrs, read-out: Summary of effects on NRF2-regulated genes: GCLC): 1.61; fold induction at 10 µM (NRF2; [11]): > 1.5; fold induction at 10 µM (NRF2; 10 μM, 24 hrs, WI-38 cells, qPCR, normalized to B2M, n = 4, read-out: GCLC expression, normalized fold change (NRF2-regulated gene)): 1.61; fold induction at 10 µM (NRF2; 10 μM, 24 hrs, WI-38 cells, qPCR, normalized to B2M, n = 4, read-out: GSTM1 expression, normalized fold change (NRF2-regulated gene)): 1.45; fold induction at 10 µM (NRF2; [12]): 1.79
Cc1ccc(S(=O)(=O)Nc2cccc3cccnc23)cc1 [Gr-3B]	0			1.12	1.16	1.07		1.11	1.14	1.06	0	0	0	1.1	1.1	1.04	1.07	0	0	0	
